In ChEMBL document CHEMBL1201862, “PubChem BioAssay data set” (2004):
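Five concentrations, 48 hours, 96-well plates. GI50 is the concentration that inhibits growth by half.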 Calls of active or inactive are those of the source. Rule as the data show it: active = GI50 up to about 1.1 µM and inactive = higher.

What was measured:
Experiment in all cases: NCI tumour cell line growth inhibition, 48 h
SK-MEL-28 = system: SK-MEL-28
PC-3 = system: PC-3
A549 = system: A549
RXF 393 = system: RXF 393
SK-OV-3 = system: SK-OV-3
HT-29 = system: HT-29
MDA-MB-435 = system: MDA-MB-435
NCI-H460 = system: NCI-H460
SN12C = system: SN12C
UACC-257 = system: UACC-257
OVCAR-8 = system: OVCAR-8
UO-31 = system: UO-31
CCRF-CEM = system: CCRF-CEM
HL-60 = system: HL-60
NCI-H23 = system: NCI-H23
BT-549 = system: BT-549
HCT-116 = system: HCT-116
HCC 2998 = system: HCC 2998
U-251 = system: U-251
KM12 = system: KM12

Measured: GI50

COc1ccc(/C=C/C(=O)c2ccc(OC(=O)/C=C/c3ccccc3)cc2)cc1
inactive: SK-MEL-28 43.6 µM | PC-3 25.7 µM | A549 29.5 µM | RXF 393 41.7 µM | SK-OV-3 53 µM | HT-29 18.5 µM | MDA-MB-435 7.73 µM | NCI-H460 19.4 µM | SN12C 26.6 µM | UACC-257 37.7 µM | OVCAR-8 26.7 µM | UO-31 22.7 µM | CCRF-CEM 5.21 µM | HL-60 4.08 µM | NCI-H23 21 µM | BT-549 14.9 µM | HCT-116 18.7 µM | HCC 2998 16.2 µM | U-251 19 µM | KM12 8.97 µM

Cc1nnc(Sc2nc(C#N)c(C#N)nc2Sc2nnc(C)s2)s1
inactive: SK-MEL-28 10.5 µM | PC-3 14.8 µM | A549 22.1 µM | RXF 393 1.92 µM | SK-OV-3 17.2 µM | HT-29 4.18 µM | MDA-MB-435 12.7 µM | NCI-H460 28.6 µM | SN12C 9.33 µM | UACC-257 10.4 µM | OVCAR-8 2.47 µM | UO-31 3.35 µM | CCRF-CEM 2.1 µM | HL-60 2.72 µM | NCI-H23 17.5 µM | BT-549 5.61 µM | HCT-116 10.3 µM | HCC 2998 20 µM | U-251 19.8 µM | KM12 23.8 µM

Cc1ccc([N+](=O)[O-])c2c(NCCNC(=O)c3cc(C(=O)NCCNc4ccnc5c(C)ccc([N+](=O)[O-])c45)n(C)n3)ccnc12
inactive: SK-MEL-28 > 60.5 µM | PC-3 > 100 µM | A549 > 57.1 µM | RXF 393 > 100 µM | SK-OV-3 > 100 µM | HT-29 > 77.8 µM | MDA-MB-435 > 41.6 µM | NCI-H460 > 100 µM | SN12C > 57.7 µM | UACC-257 > 81.1 µM | OVCAR-8 > 72.1 µM | UO-31 > 100 µM | CCRF-CEM 36 µM | HL-60 53.6 µM | NCI-H23 > 84.9 µM | BT-549 > 100 µM | HCT-116 > 100 µM | HCC 2998 > 100 µM | U-251 > 89.5 µM | KM12 > 100 µM

CCN(CC)c1ccc2cc(C(=O)NCc3ccccc3)c(=N)oc2c1
inactive: SK-MEL-28 66.2 µM | PC-3 19.3 µM | A549 42.1 µM | RXF 393 47.5 µM | SK-OV-3 56.8 µM | HT-29 9.02 µM | MDA-MB-435 6.7 µM | NCI-H460 28.2 µM | SN12C > 100 µM | UACC-257 20.4 µM | OVCAR-8 37.7 µM | UO-31 > 26.6 µM | CCRF-CEM 13.3 µM | HL-60 39.1 µM | NCI-H23 31.1 µM | BT-549 23.5 µM | HCT-116 39 µM | HCC 2998 40.4 µM | U-251 27.7 µM | KM12 8.93 µM

Cn1ccnc1Sc1ccc(/C=N/c2ccc3nc(SCC(=O)NC4CCCCC4)sc3c2)cc1[N+](=O)[O-]
inactive: SK-MEL-28 > 100 µM | PC-3 > 100 µM | A549 > 100 µM | RXF 393 7.45 µM | SK-OV-3 20.2 µM | HT-29 > 100 µM | MDA-MB-435 > 100 µM | NCI-H460 > 100 µM | SN12C > 100 µM | UACC-257 > 100 µM | OVCAR-8 > 100 µM | UO-31 > 100 µM | CCRF-CEM > 100 µM | HL-60 > 100 µM | NCI-H23 37.5 µM | BT-549 14.1 µM | HCT-116 25.9 µM | HCC 2998 > 100 µM | U-251 8.09 µM | KM12 > 100 µM
